This assay concerns H1N1 (influenza A/New Caledonia/20/99). Description: microbe, parasite or virus in culture. It counts as cell-based. The note with it: H1N1, A549, 48 h.

As usually defined, the IC50 is the concentration that gives 50% inhibition. The low end stands for greater potency in that assay, the high end for weaker potency in that assay.

`CC1(C)CCc2sc(NC(=O)c3cc[nH]n3)c(C(=O)O)c2C1` [#225, 5,5-Dimethyl-2-(1H-pyrazole-3-carbonylamino)-6,7-dihydro-4H-benzothiophene-3-carboxylic acid] yielded a concentration for half-maximal inhibition (IC50) of 110 nM.

In the case of `COCCn1ccc(C(=O)Nc2sc3c(c2C(=O)O)CC(C)(C)CC3)n1` [#226, 2-[[1-(2-Methoxyethyl)pyrazole-3-carbonyl]amino]-5,5-dimethyl-6,7-dihydro-4H-benzothiophene-3-carboxylic acid], the IC50 was determined as 820 nM.

`CC1(C)CCc2sc(NC(=O)c3ccc(N4CCOCC4)nn3)c(C(=O)O)c2C1` [#227, 5,5-Dimethyl-2-[(6-morpholinopyridazine-3-carbonyl)amino]-6,7-dihydro-4H-benzothiophene-3-carboxylic acid] displayed an IC50 of 1390 nM.

In turn, `CC1(C)CCc2sc(NC(=O)c3ccn(CC4CCOCC4)n3)c(C(=O)O)c2C1` [#228, 5,5-Dimethyl-2-[[1-(tetrahydropyran-4-ylmethyl)pyrazole-3-carbonyl]amino]-6,7-dihydro-4H-benzothiophene-3-carboxylic acid] yielded an IC50 of 900 nM.

`CC1(C)CCc2c(sc(NC(=O)c3ccc(N4CCOCC4)cn3)c2C(=O)O)C1` [#229, 6,6-Dimethyl-2-[(5-morpholinopyridine-2-carbonyl)amino]-5,7-dihydro-4H-benzothiophene-3-carboxylic acid] displayed an IC50 of 370 nM. This IC50 is about 2.4-fold lower than that of the compound before.

`CC1(C)CCc2c(sc(NC(=O)c3cnc(N4CCOCC4)cn3)c2C(=O)O)C1` [#230, 6,6-Dimethyl-2-[(5-morpholinopyrazine-2-carbonyl)amino]-5,7-dihydro-4H-benzothiophene-3-carboxylic acid] yielded a half-inhibitory concentration (IC50) of 420 nM. This IC50 and that of the compound before are within 1.5-fold of each other.

Compound `CC1(C)CCc2c(sc(NC(=O)c3ccc(F)cc3F)c2C(=O)O)C1` [Compound #17, 2-[(2,4-Difluorobenzoyl)amino]-6,6-dimethyl-5,7-dihydro-4H-benzothiophene-3-carboxylic acid] yielded an IC50 of 260 nM.

`CC1(C)CCc2c(sc(NC(=O)c3ccc(F)cc3)c2C(=O)O)C1` [Compound #19, 2-[(4-Fluorobenzoyl)amino]-6,6-dimethyl-5,7-dihydro-4H-benzothiophene-3-carboxylic acid] came in with an IC50 of 110 nM.

As to `COc1cccc(C(=O)Nc2sc3c(c2C(=O)O)CCC(C)(C)C3)c1` [Compound #21, 2-[(3-Methoxybenzoyl)amino]-6,6-dimethyl-5,7-dihydro-4H-benzothiophene-3-carboxylic acid], the IC50 came out at 55.8 nM. Against the preceding compound, the IC50 is about 2-fold lower.

Consider `CC1(C)CCc2c(sc(NC(=O)c3ccc(OC(F)F)cc3)c2C(=O)O)C1` [Compound #23, 2-[[4-(Difluoromethoxy)benzoyl]amino]-6,6-dimethyl-5,7-dihydro-4H-benzothiophene-3-carboxylic acid], for which the half-inhibitory concentration (IC50) stood at 80 nM.

Regarding `CC1(C)CCc2c(sc(NC(=O)c3ccc(OC(F)(F)F)cc3)c2C(=O)O)C1` [Compound #24, 6,6-Dimethyl-2-[[4-(trifluoromethoxy)benzoyl]amino]-5,7-dihydro-4H-benzothiophene-3-carboxylic acid], the IC50 amounted to 160 nM. This IC50 lies about 2-fold higher than the previous one.

`COc1ccc(C(=O)Nc2sc3c(c2C(=O)O)CCC(C)(C)C3)nc1` [Compound #25, 2-[(5-Methoxypyridine-2-carbonyl)amino]-6,6-dimethyl-5,7-dihydro-4H-benzothiophene-3-carboxylic acid] registered a half-maximal inhibitory concentration (IC50) of 90 nM.

The compound `CC1(C)CCc2sc(NC(=O)c3ccccc3)c(C(=O)O)c2C1` [Compound #26, 2-Benzamido-5,5-dimethyl-6,7-dihydro-4H-benzothiophene-3-carboxylic acid] yielded an IC50 of 84.9 nM.

`COc1ccc(C(=O)Nc2sc3c(c2C(=O)O)CC(C)(C)CC3)cc1OC` [Compound #27, 2-[(3,4-Dimethoxybenzoyl)amino]-5,5-dimethyl-6,7-dihydro-4H-benzothiophene-3-carboxylic acid] showed a half-maximal inhibitory concentration (IC50) of 40 nM.

Turning to `O=C(Nc1sc2c(c1C(=O)O)C1CCC2C1)c1ccccc1` (stereo not drawn) [Compound #28, 2-Benzamido-4,5,6,7-tetrahydro-4,7-methanobenzo[b]thiophene-3-carboxylic acid], the IC50 worked out at 1270 nM.

Turning to `O=C(Nc1sc2c(c1C(=O)O)CCC1(CC1)C2)c1ccccc1` [Compound #29, 2-Benzamidospiro[5,7-dihydro-4H-benzothiophene-6,1′-cyclopropane]-3-carboxylic acid], the IC50 was found to be 90 nM. Compared with the last compound, the IC50 is about 14-fold lower.

Regarding `COc1ccc(C(=O)Nc2sc3c(c2C(=O)O)CCC2(CC2)C3)cc1OC` [Compound #30, 2-[(3,4-Dimethoxybenzoyl)amino]spiro[5,7-dihydro-4H-benzothiophene-6,1′-cyclopropane]-3-carboxylic acid], 70 nM corresponded to half-maximal inhibition (IC50).

As to `O=C(Nc1sc2c(c1C(=O)O)CCC1(CC1)C2)c1ccc(N2CCOCC2)cc1` [Compound #31, 2-[(4-Morpholinobenzoyl)amino]spiro[5,7-dihydro-4H-benzothiophene-6,1′-cyclopropane]-3-carboxylic acid], the concentration for half-maximal inhibition (IC50) was 100 nM.

With `O=C(Nc1sc2c(c1C(=O)O)CCC1(CC1)C2)c1ccc(F)cc1` [Compound #32, 2-[(4-Fluorobenzoyl)amino]spiro[5,7-dihydro-4H-benzothiophene-6,1′-cyclopropane]-3-carboxylic acid], 160 nM corresponded to half-maximal inhibition (IC50).

`CC1(C)Cc2c(sc(NC(=O)c3ccc(N4CCC(O)CC4)cc3)c2C(=O)O)C(C)(C)C1` [Compound #34, 2-[[4-(4-Hydroxy-1-piperidyl)benzoyl]amino]-5,5,7,7-tetramethyl-4,6-dihydrobenzothiophene-3-carboxylic acid] displayed an IC50 of 113 nM.

`COc1ccc(C(=O)Nc2sc3c(c2C(=O)O)C(C)(C)CC3)cc1OC` [Compound #38, 2-[(3,4-Dimethoxybenzoyl)amino]-4,4-dimethyl-5,6-dihydrocyclopenta[b]thiophene-3-carboxylic acid] showed a half-maximal inhibitory concentration (IC50) of 339 nM.

Compound `CC1(C)CCc2sc(NC(=O)c3ccc(OC(F)F)cc3)c(C(=O)O)c21` [Compound #39, 2-[[4-(Difluoromethoxy)benzoyl]amino]-4,4-dimethyl-5,6-dihydrocyclopenta[b]thiophene-3-carboxylic acid] came in with an IC50 of 277 nM.

Compound `CC1(C)CCc2sc(NC(=O)c3ccc(OC(F)(F)F)cc3)c(C(=O)O)c21` [Compound #40, 4,4-Dimethyl-2-[[4-(trifluoromethoxy)benzoyl]amino]-5,6-dihydrocyclopenta[b]thiophene-3-carboxylic acid] showed a half-maximal inhibitory concentration (IC50) of 230 nM.

Regarding `CC1(C)CCc2sc(NC(=O)c3ccc(N4CCOCC4)cc3)c(C(=O)O)c21` [Compound #41, 4,4-Dimethyl-2-[(4-morpholinobenzoyl)amino]-5,6-dihydrocyclopenta[b]thiophene-3-carboxylicacid], 105 nM corresponded to half-maximal inhibition (IC50).

Regarding `CC1(C)CCCc2sc(NC(=O)c3ccccc3)c(C(=O)O)c21` [Compound #42, 2-Benzamido-4,4-dimethyl-6,7-dihydro-5H-benzothiophene-3-carboxylic acid], the concentration for half-maximal inhibition (IC50) worked out at 192 nM.

For the compound `CC1CC(C)(C)c2sc(NC(=O)c3ccccc3)c(C(=O)O)c21` (stereo not drawn) [Compound #43, 2-Benzamido-4,6,6-trimethyl-4,5-dihydrocyclopenta[b]thiophene-3-carboxylic acid], the half-maximal inhibitory concentration (IC50) came to 280 nM.

Consider `CC1CC(C)(C)Cc2sc(NC(=O)c3ccccc3)c(C(=O)O)c21` (stereo not drawn) [Compound #44, 2-Benzamido-4,6,6-trimethyl-5,7-dihydro-4H-benzothiophene-3-carboxylic acid], for which half-maximal inhibition (IC50) was put at 90 nM. This IC50 lies about 3.1-fold lower than the previous one.

Take `CC1(C)Cc2c(sc(NC(=O)c3ccc(NCC4COC4)cc3)c2C(=O)O)C(C)(C)C1` [Compound #59, 5,5,7,7-Tetramethyl-2-[[4-(oxetan-3-ylmethylamino)benzoyl]amino]-4,6-dihydrobenzothiophene-3-carboxylic acid]: inhibition was half-maximal at 10 nM (IC50).

Regarding `CC1(C)Cc2c(sc(NC(=O)c3ccc(NC4CCOC4)cc3)c2C(=O)O)C(C)(C)C1` (stereo not drawn) [Compound #61, 5,5,7,7-Tetramethyl-2-[[4-(tetrahydrofuran-3-ylamino)benzoyl]amino]-4,6-dihydrobenzothiophene-3-carboxylic acid], the IC50 was found to be 27.9 nM.

As to `CC(=O)N1CCC(Nc2ccc(C(=O)Nc3sc4c(c3C(=O)O)CC(C)(C)CC4(C)C)cc2)CC1` [Compound #63, 2-[[4-[(1-Acetyl-4-piperidyl)amino]benzoyl]amino]-5,5,7,7-tetramethyl-4,6-dihydrobenzothiophene-3-carboxylic acid], the concentration for half-maximal inhibition (IC50) was determined as 80 nM.

As to `COCCNc1ccc(C(=O)Nc2sc3c(c2C(=O)O)C(C)(C)CC3)cc1` [Compound #64, 2-[[4-(2-Methoxyethylamino)benzoyl]amino]-4,4-dimethyl-5,6-dihydrocyclopenta[b]thiophene-3-carboxylicacid], the concentration for half-maximal inhibition (IC50) was 90 nM. The IC50 values of the last two compounds are within 1.5-fold of each other.

Compound `CC1(C)CCc2sc(NC(=O)c3ccc(N4CCOCC4)nc3)c(C(=O)O)c2C1` [Compound #65, 5,5-Dimethyl-2-[(6-morpholinopyridine-3-carbonyl)amino]-6,7-dihydro-4H-benzothiophene-3-carboxylic acid] showed an IC50 of 200 nM.

Regarding `CC1(C)CCc2sc(NC(=O)c3ccc(N4CCC(O)CC4)cc3)c(C(=O)O)c21` [Compound #78, 2-[[4-(4-Hydroxy-1-piperidyl)benzoyl]amino]-4,4-dimethyl-5,6-dihydrocyclopenta[b]thiophene-3-carboxylic acid], the midpoint of inhibition, the IC50, lay at 290 nM.

Regarding `CN1CCN(c2ccc(C(=O)Nc3sc4c(c3C(=O)O)CC(C)(C)CC4(C)C)cc2)CC1` [Compound #80, 5,5,7,7-Tetramethyl-2-[[4-(4-methylpiperazin-1-yl)benzoyl]amino]-4,6-dihydrobenzothiophene-3-carboxylic acid], the IC50 is 310 nM.

For `CC1(C)Cc2c(sc(NC(=O)c3ccccn3)c2C(=O)O)C(C)(C)C1` [Compound #90, 5,5,7,7-Tetramethyl-2-(pyridine-2-carbonylamino)-4,6-dihydrobenzothiophene-3-carboxylic acid], half-maximal inhibition (IC50) required 600 nM.

`COc1ccc(C(=O)Nc2sc3c(c2C(=O)O)CCC(C)(C)C3)nc1OC` [Compound #94, 2-[(5,6-Dimethoxypyridine-2-carbonyl)amino]-6,6-dimethyl-5,7-dihydro-4H-benzothiophene-3-carboxylic acid] displayed a concentration for half-maximal inhibition (IC50) of 660 nM.

Values taken from patent US11492347B2 (ENYO PHARMA, priority 2018, dated 2022).
